pIC50, pKd: −log10 of the molar value.

Data on two compounds can be found in patent US20260022118A1, “HETEROCYCLIC COMPOUNDS AS NRAS INHIBITORS” (Board of Regents, The University of Texas System, priority 2023, published 2026).

For assay [1], the system named is THP-1 cells expressing G12D (NRAS G12D). The assay can be described thus: Inhibition of NRAS G12D-mediated phosphorylation of ERK (AlphaLISA p-ERK1/2) in THP-1 cells. As to conditions: Homo sapiens, THP-1, 2 h, 2 hours incubation, HBSS with 0% or 10% FBS, p-ERK1/2 (Thr202/Tyr204) AlphaLISA, read-out: pERK THP-1 IC50. Format: cell-based. Summed up:
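THP-1 cells expressing NRAS G12D, seeded in HBSS with 0% or 10% FBS, were exposed to test compound (1% DMSO final) for 2 h. p-ERK1/2 (Thr202/Tyr204) read by AlphaLISA SureFire Ultra. IC50 from curves normalized to no-inhibitor (100%) and 1 μM trametinib (0%) controls.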
In general terms: In Alpha technology, singlet oxygen from a donor bead excites a nearby acceptor bead.

Assay [2] deals with NRAS G12D C118S (Homo sapiens (Human), UniProt P01111, C118S/G12D). The assay is described as follows: NRas G12D Surface Plasmon Resonance (SPR) binding assay. The settings on record: Avi-tagged biotinylated NRAS G12D C118S on streptavidin chip, 25° C., 1:1 kinetic or steady-state fit. Summed up: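 Biotinylated Avi-tagged NRAS G12D C118S was captured at about 600 RU on a streptavidin chip alongside a blank reference channel. Compounds were run as 10-point 1:3 dilution series in HBS-P+ pH 7.4 with 5 mM MgCl2 and 3% DMSO, using a 2–4% DMSO solvent correction. A control compound at 10 μM was injected periodically to check protein activity.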
NRAS G12D C118S, sequence (P01111 whole entry G12D/C118S): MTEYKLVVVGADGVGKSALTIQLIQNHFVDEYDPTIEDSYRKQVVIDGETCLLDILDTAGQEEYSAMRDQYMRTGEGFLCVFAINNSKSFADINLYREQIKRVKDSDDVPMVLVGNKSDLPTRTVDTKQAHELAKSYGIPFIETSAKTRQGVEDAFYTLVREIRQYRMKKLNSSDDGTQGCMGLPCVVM

As a reminder, the pIC50 is −log10 of the IC50, conventionally taken in molar units. A word on the pKd: it is the Kd on a negative log10 scale, so that one unit is a factor of ten. A lower pKd goes with a high Kd. Consider `C#Cc1c(F)ccc2cc(O)cc(-c3ncc4c(N5CC6CCC5CN6)nn(C5CC5)c4c3F)c12` (stereo not shown) [Example 105, 4-(3-(2,5-diazabicyclo[2.2.2]octan-2-yl)-1-cyclopropyl-7-fluoro-1H-pyrazolo[4,3-c]pyridin-6-yl)-5-ethynyl-6-fluoronaphthalen-2-ol], for which, in assay [1], the pIC50 was 6.29. For the same compound, in assay [2], the pKd was 7.73.
The matching figures for `C#Cc1c(F)ccc2cc(O)cc(-c3nc(OC(F)F)c4c([C@H]5[C@@H]6CNC[C@@H]65)nn(C5CC5)c4c3F)c12` [Example 66, 4-(3-((1R,5S,6r)-3-azabicyclo[3.1.0]hexan-6-yl)-1-cyclopropyl-4-(difluoromethoxy)-7-fluoro-1H-pyrazolo[4,3-c]pyridin-6-yl)-5-ethynyl-6-fluoronaphthalen-2-ol]: 5.92 and 6.94.
